Test results as given in article PMC7402526, “An in vitro quantitative systems pharmacology approach for deconvolving mechanisms of drug-induced, multilineage cytopenias” (PLoS Computational Biology, 2020).

Tests used:
[1] = test system: hematopoietic stem cells (HSCs); assay: Multi-lineage toxicity assay (MLTA), HSCs: concentration-response and QSP model fit; format: cell-based, human; parameters: EmaxAP,HSC / EmaxT,HSC / Emax_drug_HSC: unitless, 0–2; ≤1 anti-proliferative, >1 adds cell killing
How it was run: (§1)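 Freeze-thawed primary human bone marrow CD34+ cells were grown in SFEM II with a multi-lineage cytokine cocktail, drug added day 0, six days at 37°C. Lineage counts came from 17-parameter flow with TruCount beads, vehicle-normalized per donor, then fitted by an Emax-based QSP model.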

[2] = test system: granulocyte progenitor (Gran-lin prog); assay: MLTA, GranP: concentration-response and QSP model fit; format: cell-based, human; details: Homo sapiens, 144 h
How it was run: (§2)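 Drug was added at time 0 to thawed human bone marrow CD34+ cells in SFEM II plus a cytokine cocktail. After 6 days at 37°C, subsets were counted by surface-marker flow with TruCount beads. Vehicle-normalized, donor-pooled data then fed an Emax model separating anti-proliferative from cell-killing effects.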

[3] = test system: monocyte progenitors (monocyte prog); assay: MLTA, MonoP: concentration-response and QSP model fit; format: cell-based, human; details: Homo sapiens, Monocyte, 144 h
How it was run: as §2

monocytes (monocyte-lin) = assay: MLTA, Mono: concentration-response and QSP model fit; format: cell-based, human; details: Homo sapiens, Monocyte, 144 h
How it was run: as §2

[4] = test system: early erythroid cells (Eryth I); assay: MLTA, ErythI: concentration-response and QSP model fit; format: cell-based, human; details: Homo sapiens, 144 h
How it was run: as §2

[5] = test system: lymphocyte progenitors (LymP); assay: MLTA, LymP: concentration-response and QSP model fit; format: cell-based, human; details: Homo sapiens, Lymphocyte, 144 h
How it was run: as §1

[6] = test system: total viable cells (totalViableCells); assay: MLTA, total live cells concentration-response; format: cell-based; details: Homo sapiens, 144 h, 6 days, normalized to vehicle control, read-out: total_live normalized cell count
How it was run: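 Freeze-thawed primary human bone marrow CD34+ cells in SFEM II with cytokine cocktail, drug added day 0, 6 days at 37°C, 5% CO2. Live/dead counts by 17-parameter flow cytometry with DAPI exclusion, bead-normalized, volume-corrected to cells/mL. Normalized per donor to mean of six vehicle wells; 2–7 donors pooled.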

CC(=O)c1c(C)c2cnc(Nc3ccc(N4CCNCC4)cn3)nc2n(C2CCCC2)c1=O [palbociclib]
EC50 ([1]; Homo sapiens, Hematopoietic stem cell, 144 h, QSP model fit of 6-day MLTA data): 166 nM
activity at 0.0002 µM ([1]; Homo sapiens, Hematopoietic stem cell, 144 h, dose 0.2 nM, 6 days, normalized to vehicle control, read-out: HSCs normalized cell count): 89.4%
activity at 0.001 µM ([1]; Homo sapiens, Hematopoietic stem cell, 144 h, dose 1 nM, 6 days, normalized to vehicle control, read-out: HSCs normalized cell count): 92%
activity at 0.005 µM ([1]; Homo sapiens, Hematopoietic stem cell, 144 h, dose 5 nM, 6 days, normalized to vehicle control, read-out: HSCs normalized cell count): 98.5%
activity at 0.025 µM ([1]; Homo sapiens, Hematopoietic stem cell, 144 h, dose 25 nM, 6 days, normalized to vehicle control, read-out: HSCs normalized cell count): 83.4%
activity at 0.1 µM ([1]; Homo sapiens, Hematopoietic stem cell, 144 h, dose 100 nM, 6 days, normalized to vehicle control, read-out: HSCs normalized cell count): 48.9%
activity at 0.5 µM ([1]; Homo sapiens, Hematopoietic stem cell, 144 h, dose 500 nM, 6 days, normalized to vehicle control, read-out: HSCs normalized cell count): 25%
activity at 2.5 µM ([1]; Homo sapiens, Hematopoietic stem cell, 144 h, dose 2500 nM, 6 days, normalized to vehicle control, read-out: HSCs normalized cell count): 9.86%
Emax ([1]; Homo sapiens, Hematopoietic stem cell, 144 h, parameter from QSP model fitting, read-out: Emax_drug_HSC): 77.6%
EmaxAP,HSC ([1]; anti-proliferation component, min(1, EmaxT)): 0.776
activity at 0.0002 µM ([2]; dose 0.2 nM, 6 days, normalized to vehicle control, read-out: GranPs normalized cell count): 98.2%
activity at 0.001 µM ([2]; dose 1 nM, 6 days, normalized to vehicle control, read-out: GranPs normalized cell count): 107%
activity at 0.005 µM ([2]; dose 5 nM, 6 days, normalized to vehicle control, read-out: GranPs normalized cell count): 91.8%
activity at 0.025 µM ([2]; dose 25 nM, 6 days, normalized to vehicle control, read-out: GranPs normalized cell count): 73.4%
activity at 0.1 µM ([2]; dose 100 nM, 6 days, normalized to vehicle control, read-out: GranPs normalized cell count): 37%
activity at 0.5 µM ([2]; dose 500 nM, 6 days, normalized to vehicle control, read-out: GranPs normalized cell count): 8.03%
activity at 2.5 µM ([2]; dose 2500 nM, 6 days, normalized to vehicle control, read-out: GranPs normalized cell count): 0.794%
Emax ([2]; parameter from QSP model fitting, read-out: Emax_drug_GranP): 4.7%
activity at 0.0002 µM ([3]; dose 0.2 nM, 6 days, normalized to vehicle control, read-out: MonoPs normalized cell count): 101%
activity at 0.001 µM ([3]; dose 1 nM, 6 days, normalized to vehicle control, read-out: MonoPs normalized cell count): 92.3%
activity at 0.005 µM ([3]; dose 5 nM, 6 days, normalized to vehicle control, read-out: MonoPs normalized cell count): 97.3%
activity at 0.025 µM ([3]; dose 25 nM, 6 days, normalized to vehicle control, read-out: MonoPs normalized cell count): 44.4%
activity at 0.1 µM ([3]; dose 100 nM, 6 days, normalized to vehicle control, read-out: MonoPs normalized cell count): 14.1%
activity at 0.5 µM ([3]; dose 500 nM, 6 days, normalized to vehicle control, read-out: MonoPs normalized cell count): 4.6%
activity at 2.5 µM ([3]; dose 2500 nM, 6 days, normalized to vehicle control, read-out: MonoPs normalized cell count): 0.787%
Emax ([3]; parameter from QSP model fitting, read-out: Emax_drug_MonoP): 0.0351%
EC50 (monocytes (monocyte-lin); QSP model fit of 6-day MLTA data): 39.3 nM
activity at 0.0002 µM (monocytes (monocyte-lin); dose 0.2 nM, 6 days, normalized to vehicle control, read-out: Mon normalized cell count): 90%
activity at 0.001 µM (monocytes (monocyte-lin); dose 1 nM, 6 days, normalized to vehicle control, read-out: Mon normalized cell count): 106%
activity at 0.005 µM (monocytes (monocyte-lin); dose 5 nM, 6 days, normalized to vehicle control, read-out: Mon normalized cell count): 89.9%
activity at 0.025 µM (monocytes (monocyte-lin); dose 25 nM, 6 days, normalized to vehicle control, read-out: Mon normalized cell count): 58.8%
activity at 0.1 µM (monocytes (monocyte-lin); dose 100 nM, 6 days, normalized to vehicle control, read-out: Mon normalized cell count): 25.6%
activity at 0.5 µM (monocytes (monocyte-lin); dose 500 nM, 6 days, normalized to vehicle control, read-out: Mon normalized cell count): 13.2%
activity at 2.5 µM (monocytes (monocyte-lin); dose 2500 nM, 6 days, normalized to vehicle control, read-out: Mon normalized cell count): 23.9%
Emax (monocytes (monocyte-lin); parameter from QSP model fitting, read-out: Emax_drug_Mono): 14.2%
activity at 0.0002 µM ([4]; dose 0.2 nM, 6 days, normalized to vehicle control, read-out: ErythI normalized cell count): 104%
activity at 0.001 µM ([4]; dose 1 nM, 6 days, normalized to vehicle control, read-out: ErythI normalized cell count): 109%
activity at 0.005 µM ([4]; dose 5 nM, 6 days, normalized to vehicle control, read-out: ErythI normalized cell count): 96.4%
activity at 0.025 µM ([4]; dose 25 nM, 6 days, normalized to vehicle control, read-out: ErythI normalized cell count): 72.1%
activity at 0.1 µM ([4]; dose 100 nM, 6 days, normalized to vehicle control, read-out: ErythI normalized cell count): 35.1%
activity at 0.5 µM ([4]; dose 500 nM, 6 days, normalized to vehicle control, read-out: ErythI normalized cell count): 9.41%
activity at 2.5 µM ([4]; dose 2500 nM, 6 days, normalized to vehicle control, read-out: ErythI normalized cell count): 2.34%
Emax ([4]; parameter from QSP model fitting, read-out: Emax_drug_ErythroidI): 0.04%
activity at 0.0002 µM ([5]; dose 0.2 nM, 6 days, normalized to vehicle control, read-out: LymP normalized cell count): 86.1%
activity at 0.001 µM ([5]; dose 1 nM, 6 days, normalized to vehicle control, read-out: LymP normalized cell count): 88%
activity at 0.005 µM ([5]; dose 5 nM, 6 days, normalized to vehicle control, read-out: LymP normalized cell count): 73.1%
activity at 0.025 µM ([5]; dose 25 nM, 6 days, normalized to vehicle control, read-out: LymP normalized cell count): 38%
activity at 0.1 µM ([5]; dose 100 nM, 6 days, normalized to vehicle control, read-out: LymP normalized cell count): 12.4%
activity at 0.5 µM ([5]; dose 500 nM, 6 days, normalized to vehicle control, read-out: LymP normalized cell count): 5.18%
activity at 2.5 µM ([5]; dose 2500 nM, 6 days, normalized to vehicle control, read-out: LymP normalized cell count): 4.62%
Emax ([5]; parameter from QSP model fitting, read-out: Emax_drug_LymP): 0.032%
viability at 0.0002 µM ([6]; dose 0.2 nM): 94.8%
viability at 0.001 µM ([6]; dose 1 nM): 99.6%
viability at 0.005 µM ([6]; dose 5 nM): 91.8%
viability at 0.025 µM ([6]; dose 25 nM): 69.8%
viability at 0.1 µM ([6]; dose 100 nM): 39.6%
viability at 0.5 µM ([6]; dose 500 nM): 15.4%
viability at 2.5 µM ([6]; dose 2500 nM): 6.06%
